{"source": "ChEMBL document CHEMBL1201862", "about": "“PubChem BioAssay data set” (2004)", "assay_in_all_cases": "growth of human tumour cells (NCI), 48 h", "key": {"HCT-116": {"system": "HCT-116"}, "NCI-H460": {"system": "NCI-H460"}, "COLO 205": {"system": "COLO 205"}, "SF-268": {"system": "SF-268"}, "OVCAR-8": {"system": "OVCAR-8"}, "SNB-19": {"system": "SNB-19"}, "SN12C": {"system": "SN12C"}, "MDA-N": {"system": "MDA-N"}, "IGROV-1": {"system": "IGROV-1"}, "KM12": {"system": "KM12"}, "UO-31": {"system": "UO-31"}, "HT-29": {"system": "HT-29"}, "786-0": {"system": "786-0"}, "SF-295": {"system": "SF-295"}, "A549": {"system": "A549"}, "SF-539": {"system": "SF-539"}, "T47D": {"system": "T47D"}, "OVCAR-4": {"system": "OVCAR-4"}, "SK-MEL-5": {"system": "SK-MEL-5"}, "DU-145": {"system": "DU-145"}, "Hs-578T": {"system": "Hs-578T"}, "RPMI-8226": {"system": "RPMI-8226"}, "RXF 393": {"system": "RXF 393"}, "SK-OV-3": {"system": "SK-OV-3"}, "MOLT-4": {"system": "MOLT-4"}, "HCC 2998": {"system": "HCC 2998"}, "EKVX": {"system": "EKVX"}, "MDA-MB-231": {"system": "MDA-MB-231"}, "MDA-MB-435": {"system": "MDA-MB-435"}, "K562": {"system": "K562"}, "NCI-H23": {"system": "NCI-H23"}, "SK-MEL-2": {"system": "SK-MEL-2"}, "NCI-H522": {"system": "NCI-H522"}, "NCI-H226": {"system": "NCI-H226"}, "OVCAR-3": {"system": "OVCAR-3"}, "OVCAR-5": {"system": "OVCAR-5"}, "HCT-15": {"system": "HCT-15"}, "HOP-62": {"system": "HOP-62"}, "MCF7": {"system": "MCF7"}, "LOX IMVI": {"system": "LOX IMVI"}, "PC-3": {"system": "PC-3"}, "SNB-75": {"system": "SNB-75"}, "ACHN": {"system": "ACHN"}, "SR": {"system": "SR"}, "Malme-3M": {"system": "Malme-3M"}, "CAKI-1": {"system": "CAKI-1"}, "SK-MEL-28": {"system": "SK-MEL-28"}, "NCI/ADR-RES": {"system": "NCI/ADR-RES"}, "A498": {"system": "A498"}, "TK-10": {"system": "TK-10"}, "M14": {"system": "M14"}, "UACC-257": {"system": "UACC-257"}, "CCRF-CEM": {"system": "CCRF-CEM"}, "UACC-62": {"system": "UACC-62"}, "SW-620": {"system": "SW-620"}}, "note": "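Following 48 hours of exposure in 96-well plates, responses at five concentrations were used to interpolate endpoints linearly. The concentration for 50% growth inhibition is given as GI50.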 The source made the active and inactive calls. Cut-off read from the data, not from the text of the source: active = GI50 up to about 1.1 µM and inactive = higher."}
{"smiles": "CC1=CC(C)C(C)N(CCNC(=O)Nc2ccccc2)c2ccccc21", "note": "(stereo not given)", "values": [{"measurement": "GI50", "setting": "HCT-116", "result": "13.9 µM (inactive)"}, {"measurement": "GI50", "setting": "NCI-H460", "result": "19.8 µM (inactive)"}, {"measurement": "GI50", "setting": "COLO 205", "result": "16.6 µM (inactive)"}, {"measurement": "GI50", "setting": "SF-268", "result": "27.5 µM (inactive)"}, {"measurement": "GI50", "setting": "OVCAR-8", "result": "15.5 µM (inactive)"}, {"measurement": "GI50", "setting": "SNB-19", "result": "20.3 µM (inactive)"}, {"measurement": "GI50", "setting": "SN12C", "result": "25.9 µM (inactive)"}, {"measurement": "GI50", "setting": "MDA-N", "result": "22.5 µM (inactive)"}, {"measurement": "GI50", "setting": "IGROV-1", "result": "28.2 µM (inactive)"}, {"measurement": "GI50", "setting": "KM12", "result": "26.8 µM (inactive)"}, {"measurement": "GI50", "setting": "UO-31", "result": "27.2 µM (inactive)"}, {"measurement": "GI50", "setting": "HT-29", "result": "12 µM (inactive)"}, {"measurement": "GI50", "setting": "786-0", "result": "30.3 µM (inactive)"}, {"measurement": "GI50", "setting": "SF-295", "result": "10 µM (inactive)"}, {"measurement": "GI50", "setting": "A549", "result": "12 µM (inactive)"}, {"measurement": "GI50", "setting": "SF-539", "result": "21.4 µM (inactive)"}, {"measurement": "GI50", "setting": "T47D", "result": "21.3 µM (inactive)"}, {"measurement": "GI50", "setting": "OVCAR-4", "result": "27.4 µM (inactive)"}, {"measurement": "GI50", "setting": "SK-MEL-5", "result": "14.1 µM (inactive)"}, {"measurement": "GI50", "setting": "DU-145", "result": "32.7 µM (inactive)"}, {"measurement": "GI50", "setting": "Hs-578T", "result": "2.33 µM (inactive)"}, {"measurement": "GI50", "setting": "RPMI-8226", "result": "14.6 µM (inactive)"}, {"measurement": "GI50", "setting": "RXF 393", "result": "11.5 µM (inactive)"}, {"measurement": "GI50", "setting": "SK-OV-3", "result": "19.1 µM (inactive)"}, {"measurement": "GI50", "setting": "MOLT-4", "result": "20 µM (inactive)"}, {"measurement": "GI50", "setting": "HCC 2998", "result": "18.1 µM (inactive)"}, {"measurement": "GI50", "setting": "EKVX", "result": "25.9 µM (inactive)"}, {"measurement": "GI50", "setting": "MDA-MB-231", "result": "13.3 µM (inactive)"}, {"measurement": "GI50", "setting": "MDA-MB-435", "result": "25.1 µM (inactive)"}, {"measurement": "GI50", "setting": "K562", "result": "17.1 µM (inactive)"}, {"measurement": "GI50", "setting": "NCI-H23", "result": "17.6 µM (inactive)"}, {"measurement": "GI50", "setting": "SK-MEL-2", "result": "23.1 µM (inactive)"}, {"measurement": "GI50", "setting": "NCI-H522", "result": "12.1 µM (inactive)"}, {"measurement": "GI50", "setting": "NCI-H226", "result": "22.1 µM (inactive)"}, {"measurement": "GI50", "setting": "OVCAR-3", "result": "16 µM (inactive)"}, {"measurement": "GI50", "setting": "OVCAR-5", "result": "19.5 µM (inactive)"}, {"measurement": "GI50", "setting": "HCT-15", "result": 21.9, "unit": "µM"}, {"measurement": "GI50", "setting": "HOP-62", "result": "22.2 µM (inactive)"}, {"measurement": "GI50", "setting": "MCF7", "result": "17.4 µM (inactive)"}, {"measurement": "GI50", "setting": "LOX IMVI", "result": "6.81 µM (inactive)"}, {"measurement": "GI50", "setting": "PC-3", "result": "13.2 µM (inactive)"}, {"measurement": "GI50", "setting": "SNB-75", "result": "27.3 µM (inactive)"}, {"measurement": "GI50", "setting": "ACHN", "result": "15.8 µM (inactive)"}, {"measurement": "GI50", "setting": "SR", "result": "16.3 µM (inactive)"}, {"measurement": "GI50", "setting": "Malme-3M", "result": "24.6 µM (inactive)"}, {"measurement": "GI50", "setting": "CAKI-1", "result": "19.5 µM (inactive)"}, {"measurement": "GI50", "setting": "SK-MEL-28", "result": "28.6 µM (inactive)"}, {"measurement": "GI50", "setting": "NCI/ADR-RES", "result": "18.2 µM (inactive)"}, {"measurement": "GI50", "setting": "A498", "result": "16.2 µM (inactive)"}, {"measurement": "GI50", "setting": "TK-10", "result": "20.9 µM (inactive)"}, {"measurement": "GI50", "setting": "M14", "result": "23.8 µM (inactive)"}, {"measurement": "GI50", "setting": "UACC-257", "result": "13.7 µM (inactive)"}, {"measurement": "GI50", "setting": "CCRF-CEM", "result": "20.7 µM (inactive)"}, {"measurement": "GI50", "setting": "UACC-62", "result": "13.6 µM (inactive)"}, {"measurement": "GI50", "setting": "SW-620", "result": "26.5 µM (inactive)"}]}
